# Measured values: the supplement of paper PMC4862054
# Values joined by “and” are separate entries in the source; they are usually repeats but may differ in a detail not shown here. Equal entries are not always repeated.
# Assays:
# Conditions in all cases: incubation time: 72 h
# HDQ-P1 [1] = test: normalised viability (% of control), CellTiter-Blue; higher = more viable cells (about 100 = DMSO control)
# Description: (§1)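 DSRT, CellTiter-Blue viability, 72 h incubation. Signal is normalised to DMSO and benzethonium chloride controls. Value is the normalised response at dose 9.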
# CAL-51 [2] = test: as above
# Description: as §1
# MDA-MB-453 [3] = test: as above
# Description: as §1
# DU-4475 [4] = test: as above
# Description: as §1
# CAL-148 [5] = test: as above
# Description: as §1
# CAL-85-1 [6] = test: as above
# Description: as §1
# HDQ-P1 [7] = test: as above; remark: listed apart in the source
# Description: (§2)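 DSRT, CellTiter-Blue viability, 72 h incubation. Signal is normalised to DMSO and benzethonium chloride controls. Value is the normalised response at dose 7.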
# CAL-51 [8] = test: as above; remark: listed apart in the source
# Description: as §2
# MDA-MB-453 [9] = test: as above; remark: listed apart in the source
# Description: as §2
# DU-4475 [10] = test: as above; remark: listed apart in the source
# Description: as §2
# CAL-148 [11] = test: as above; remark: listed apart in the source
# Description: as §2
# CAL-85-1 [12] = test: as above; remark: listed apart in the source
# Description: as §2
# CAL-148 [13] = test: normalised response (% of control), CellTiter-Glo; higher = more viable cells (100 = DMSO, 0 = benzethonium chloride kill control)
# In short: (§3)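 After 72 h with compound in 384-well plates, breast cancer cell lines seeded as 20 µl suspension were read for CellTox Green fluorescence at 485/520 nm. CellTiter-Glo luminescence was then read after 10 min at room temperature. Compound was present at 5 concentrations in 10-fold steps over a 10,000-fold range set per compound, and plates were normalised to 0.1 % DMSO (100) and a positive kill control (0). Values are normalised signals, each at a single concentration.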
# HCC1599 = test: as above
# In short: as §3
# CAL-85-1 [14] = test: as above
# In short: as §3
Compound,normalised viability (HDQ-P1 [1]),normalised viability (CAL-51 [2]),normalised viability (MDA-MB-453 [3]),normalised viability (DU-4475 [4]),normalised viability (CAL-148 [5]),normalised viability (CAL-85-1 [6]),normalised viability (HDQ-P1 [7]),normalised viability (CAL-51 [8]),normalised viability (MDA-MB-453 [9]),normalised viability (DU-4475 [10]),normalised viability (CAL-148 [11]),normalised viability (CAL-85-1 [12]),normalised response (CAL-148 [13]) [%],normalised response (HCC1599) [%],normalised response (CAL-85-1 [14]) [%]
COc1nc(N)nc2c1ncn2[C@@H]1O[C@H](CO)[C@@H](O)[C@@H]1O [Nelarabine] (10000 nM),69.1% and 69%,99.6% and 98.4%,84.5% and 97.5%,109% and 104%,106% and 96.7%,100% and 103%,–,–,–,–,–,–,–,–,–
O=C(CCBr)N1CCN(C(=O)CCBr)CC1 [Pipobroman] (10000 nM),109%,108%,7.05%,112%,84.8%,85.6%,–,–,–,–,–,–,–,–,–
C[C@]12C=CC(=O)C=C1CC[C@@H]1[C@@H]2[C@@H](O)C[C@@]2(C)[C@H]1CC[C@]2(O)C(=O)CO [Prednisolone] (10000 nM),120%,103%,79.8%,102%,99.2%,109%,–,–,–,–,–,–,–,–,–
CC[C@@]1(O)C(=O)OCc2c1cc1n(c2=O)Cc2cc3c(CN(C)C)c(O)ccc3nc2-1 [Topotecan] (100 nM),–,–,–,–,–,–,102%,73.3%,90.4%,61.2%,45.5%,85.7%,–,–,–
CCC/C=C/C=C/C(=O)O[C@H]1/C(=C/C(=O)OC)C[C@H]2C[C@H]([C@@H](C)O)OC(=O)C[C@H](O)C[C@@H]3C[C@H](OC(C)=O)C(C)(C)[C@](O)(C[C@@H]4C/C(=C/C(=O)OC)C[C@H](/C=C/C(C)(C)[C@]1(O)O2)O4)O3 [Bryostatin 1] (100 nM),104%,109%,102%,77.3%,67.6%,99.2%,–,–,–,–,–,–,–,–,–
Cc1c(CN2CCN(C(=O)[C@H](C)O)CC2)sc2c(N3CCOCC3)nc(-c3cnc(N)nc3)nc12 [GDC-0980] (10000 nM),10.9%,3.17%,3.22%,9.81%,3.74%,15.2%,–,–,–,–,–,–,–,–,–
COc1ccc(-c2cc3c(C)nc(N)nc3n([C@H]3CC[C@H](OCCO)CC3)c2=O)cn1 (1000 nM),–,–,–,–,–,–,12.2%,12.9%,7.65%,42.9%,18.1%,23.1%,26.2,57.1,20.7
Cc1nc(Nc2ncc(C(=O)Nc3c(C)cccc3Cl)s2)cc(N2CCN(CCO)CC2)n1 [Dasatinib] (1000 nM),11.7% and 10.7%,36.7% and 40.3%,84.2% and 84.5%,100% and 110%,112% and 97.6%,37.7% and 37.6%,–,–,–,–,–,–,–,–,–
COc1cc(CCc2cc(NC(=O)c3ccc(N4CC(C)NC(C)C4)cc3)n[nH]2)cc(OC)c1 (stereo not drawn) [AZD4547] (1000 nM),123%,3.02%,8.97%,0.72%,11.9%,2.48%,–,–,–,–,–,–,–,–,–
Nc1cccc2c1CN(C1CCC(=O)NC1=O)C2=O (stereo not drawn) [Lenalidomide] (1000 nM),–,–,–,–,–,–,110% and 96.9%,103% and 100%,85.6% and 104%,110% and 88.9%,95.3% and 104%,80% and 74.3%,98.2,116,108
CCN(CC)CCNC(=O)c1c(C)[nH]c(/C=C2\C(=O)Nc3ccc(F)cc32)c1C [Sunitinib] (1000 nM),–,112% and 98.6%,89.9% and 93.9%,88.2% and 77.7%,107% and 117%,105% and 107%,–,–,–,–,–,–,–,–,–
CCN(CC)CCNC(=O)c1c(C)[nH]c(/C=C2\C(=O)Nc3ccc(F)cc32)c1C [Sunitinib] (100 nM),–,–,–,–,–,–,91.3% and 100%,115% and 98.3%,94% and 94.8%,109% and 86.6%,94.3% and 116%,93.3% and 99.1%,104,107,104
COc1nc(N)nc2c1ncn2[C@@H]1O[C@H](CO)[C@@H](O)[C@@H]1O [Nelarabine] (1000 nM),–,–,–,–,–,–,76.9% and 92.7%,96.7% and 110%,101% and 89.3%,103% and 110%,102% and 122%,101% and 98.4%,85.6,113,99.1
CO[C@@H](C(=O)N1Cc2[nH]nc(NC(=O)c3ccc(N4CCN(C)CC4)cc3)c2C1)c1ccccc1 [Danusertib] (1000 nM),–,–,–,–,–,–,45.6%,44.9%,41.7%,46.3%,47.2%,50.8%,72.2,105,90.8
Nc1cccc2c1CN(C1CCC(=O)NC1=O)C2=O (stereo not drawn) [Lenalidomide] (10000 nM),106% and 110%,97.1% and 99.6%,94.2% and 92.1%,95% and 80.6%,86.1% and 106%,81.6% and 86.1%,–,–,–,–,–,–,–,–,–
CC[C@@]1(O)C(=O)OCc2c1cc1n(c2=O)Cc2cc3c(CN(C)C)c(O)ccc3nc2-1 [Topotecan] (1000 nM),77.7%,15.6%,44.6%,12.4%,13.8%,37.5%,–,–,–,–,–,–,24.3,24.1,50.1
O=C1c2c(O)ccc(O)c2C(=O)c2c(NCCNCCO)ccc(NCCNCCO)c21 [Mitoxantrone] (100 nM),–,–,–,–,–,–,74.2%,31.2%,71.3%,13%,25.1%,63.4%,85.6,120,101
CO[C@@H](C(=O)N1Cc2[nH]nc(NC(=O)c3ccc(N4CCN(C)CC4)cc3)c2C1)c1ccccc1 [Danusertib] (10000 nM),10.4%,17.7%,31.3%,13.9%,69.4%,32.1%,–,–,–,–,–,–,–,–,–
